Data on five molecules can be found in ChEMBL document CHEMBL3390848, “Affinity selection and sequence-activity relationships of HIV-1 membrane fusion inhibitors directed at the drug-resistant variants” (Medchemcomm, 2010).

Residues, ends and D or L forms follow the SMILES beside them.

The test system of test [1] is Human immunodeficiency virus 1. As to the kind of experiment: Antiviral activity against HIV1 NL4-3 harboring gp41 D36G mutant infected in human HeLa cells expressing CD4-LTR-beta-gal assessed as inhibition of viral replication after 48 hrs by MAGI assay. The test is classed as functional, organism-based.
Test [2] deals with Human immunodeficiency virus 1. As to the kind of experiment: Binding affinity to HIV1 His-tagged N-terminal heptad repeat of envelope glycoprotein gp41 assessed as recovery of N54-drug complex after 2 hrs by LC-MS analysis. Set-up: concentration or dose not given beside the values.
The subject of test [3] is Human immunodeficiency virus 1. As to the kind of experiment: Thermal stability of HIV1 envelope glycoprotein gp41 His-tagged N-terminal heptad repeat N54-drug complex assessed as thermal unfolding transition state by measuring molar ellipticity at 4 to 90 degC by circular dichroic spectra analysis.

Broadly, the EC50 is the concentration giving half of the maximal effect. In general, Tm refers to the temperature at which the thermal transition is half complete. Consider `CC[C@H](C)[C@H](NC(=O)[C@H](CC(C)C)NC(=O)[C@H](CCC(=O)O)NC(=O)[C@H](CCC(=O)O)NC(=O)[C@@H](NC(=O)[C@H](CC(C)C)NC(=O)[C@H](CO)NC(=O)[C@@H](NC(=O)[C@H](Cc1ccc(O)cc1)NC(C)=O)[C@@H](C)O)[C@@H](C)CC)C(=O)N[C@@H](CCCCN)C(=O)N[C@@H](CCCCN)C(=O)N[C@@H](CCSC)C(=O)N[C@@H](CCC(=O)O)C(=O)N[C@@H](CCC(=O)O)C(=O)N[C@@H](CCC(N)=O)C(=O)N[C@@H](CCC(N)=O)C(=O)N[C@@H](CCCCN)C(=O)N[C@@H](CCCCN)C(=O)N[C@@H](CC(N)=O)C(=O)N[C@@H](CCC(=O)O)C(=O)N[C@@H](CCC(=O)O)C(=O)N[C@@H](CCC(=O)O)C(=O)N[C@@H](CC(C)C)C(=O)N[C@@H](CCCCN)C(=O)N[C@@H](CCCCN)C(=O)N[C@@H](CC(C)C)C(=O)N[C@@H](CCC(=O)O)C(=O)N[C@@H](CCC(=O)O)C(=O)N[C@@H](Cc1c[nH]c2ccccc12)C(=O)N[C@@H](C)C(=O)N[C@@H](CCCCN)C(=O)N[C@@H](CCCCN)C(=O)N[C@@H](Cc1c[nH]c2ccccc12)C(=O)N[C@@H](CC(N)=O)C(=O)N[C@@H](Cc1c[nH]c2ccccc12)C(=O)N[C@@H](Cc1ccccc1)C(N)=O` (Ac-YTSLIEELIKKMEEQQKKNEEELKKLEEWAKKWNWF-NH2), for which the EC50 in test [1] was 0.2 nM. The Activity in test [2] was determined as 9.9%. Moreover, in test [3], the midpoint of thermal melting (Tm) was determined as 79 °C.
The matching figures for `CC[C@H](C)[C@H](NC(=O)[C@H](CC(C)C)NC(=O)[C@H](CCC(=O)O)NC(=O)[C@H](CCC(=O)O)NC(=O)[C@@H](NC(=O)[C@H](CC(C)C)NC(=O)[C@H](CO)NC(=O)[C@@H](NC(=O)[C@H](Cc1ccc(O)cc1)NC(C)=O)[C@@H](C)O)[C@@H](C)CC)C(=O)N[C@@H](CCCCN)C(=O)N[C@@H](CCCCN)C(=O)N[C@@H](CO)C(=O)N[C@@H](CCC(=O)O)C(=O)N[C@@H](CCC(=O)O)C(=O)NCC(=O)N[C@@H](CCC(N)=O)C(=O)N[C@@H](CCCCN)C(=O)N[C@@H](CCCCN)C(=O)N[C@@H](CC(N)=O)C(=O)N[C@@H](CCC(=O)O)C(=O)N[C@@H](CCC(=O)O)C(=O)N[C@@H](CCC(=O)O)C(=O)N[C@@H](CC(C)C)C(=O)N[C@@H](CCCCN)C(=O)N[C@@H](CCCCN)C(=O)N[C@@H](CC(C)C)C(=O)N[C@@H](CCC(=O)O)C(=O)N[C@@H](CCC(=O)O)C(=O)N[C@@H](Cc1c[nH]c2ccccc12)C(=O)N[C@@H](C)C(=O)N[C@@H](CCCCN)C(=O)N[C@@H](CCCCN)C(=O)N[C@@H](Cc1c[nH]c2ccccc12)C(=O)N[C@@H](CC(N)=O)C(=O)N[C@@H](Cc1c[nH]c2ccccc12)C(=O)N[C@@H](Cc1ccccc1)C(N)=O` (Ac-YTSLIEELIKKSEEGQKKNEEELKKLEEWAKKWNWF-NH2): 3 nM, 3.4% and 66.2 °C.
Regarding `CC[C@H](C)[C@H](NC(=O)[C@H](CC(C)C)NC(=O)[C@H](CCC(=O)O)NC(=O)[C@H](CCC(=O)O)NC(=O)[C@@H](NC(=O)[C@H](CC(C)C)NC(=O)[C@H](CO)NC(=O)[C@@H](NC(=O)[C@H](Cc1ccc(O)cc1)NC(C)=O)[C@@H](C)O)[C@@H](C)CC)C(=O)N[C@@H](CCCCN)C(=O)N[C@@H](CCCCN)C(=O)N[C@@H](CCCNC(=N)N)C(=O)N[C@@H](CCC(=O)O)C(=O)N[C@@H](CCC(=O)O)C(=O)N[C@@H](CCC(N)=O)C(=O)N[C@@H](CCC(N)=O)C(=O)N[C@@H](CCCCN)C(=O)N[C@@H](CCCCN)C(=O)N[C@@H](CC(N)=O)C(=O)N[C@@H](CCC(=O)O)C(=O)N[C@@H](CCC(=O)O)C(=O)N[C@@H](CCC(=O)O)C(=O)N[C@@H](CC(C)C)C(=O)N[C@@H](CCCCN)C(=O)N[C@@H](CCCCN)C(=O)N[C@@H](CC(C)C)C(=O)N[C@@H](CCC(=O)O)C(=O)N[C@@H](CCC(=O)O)C(=O)N[C@@H](Cc1c[nH]c2ccccc12)C(=O)N[C@@H](C)C(=O)N[C@@H](CCCCN)C(=O)N[C@@H](CCCCN)C(=O)N[C@@H](Cc1c[nH]c2ccccc12)C(=O)N[C@@H](CC(N)=O)C(=O)N[C@@H](Cc1c[nH]c2ccccc12)C(=O)N[C@@H](Cc1ccccc1)C(=O)O` (Ac-YTSLIEELIKKREEQQKKNEEELKKLEEWAKKWNWF-OH), in test [1], the concentration for a half-maximal effect (EC50) worked out at 320 nM. Besides, in test [2], the Activity is 1.5%. Besides, in test [3], the melting temperature (Tm) came out at 49.4 °C.
The matching figures for `CC[C@H](C)[C@H](NC(=O)[C@H](CC(C)C)NC(=O)[C@H](CCC(=O)O)NC(=O)[C@H](CCC(=O)O)NC(=O)[C@@H](NC(=O)[C@H](CC(C)C)NC(=O)[C@H](CO)NC(=O)[C@@H](NC(=O)[C@H](Cc1ccc(O)cc1)NC(C)=O)[C@@H](C)O)[C@@H](C)CC)C(=O)N[C@@H](CCCCN)C(=O)N[C@@H](CCCCN)C(=O)N[C@@H](Cc1ccccc1)C(=O)N[C@@H](CCC(=O)O)C(=O)N[C@@H](CCC(=O)O)C(=O)N[C@@H](CCC(N)=O)C(=O)N[C@@H](CCC(N)=O)C(=O)N[C@@H](CCCCN)C(=O)N[C@@H](CCCCN)C(=O)N[C@@H](CC(N)=O)C(=O)N[C@@H](CCC(=O)O)C(=O)N[C@@H](CCC(=O)O)C(=O)N[C@@H](CCC(=O)O)C(=O)N[C@@H](CC(C)C)C(=O)N[C@@H](CCCCN)C(=O)N[C@@H](CCCCN)C(=O)N[C@@H](CC(C)C)C(=O)N[C@@H](CCC(=O)O)C(=O)N[C@@H](CCC(=O)O)C(=O)N[C@@H](Cc1c[nH]c2ccccc12)C(=O)N[C@@H](C)C(=O)N[C@@H](CCCCN)C(=O)N[C@@H](CCCCN)C(=O)N[C@@H](Cc1c[nH]c2ccccc12)C(=O)N[C@@H](CC(N)=O)C(=O)N[C@@H](Cc1c[nH]c2ccccc12)C(=O)N[C@@H](Cc1ccccc1)C(N)=O` (Ac-YTSLIEELIKKFEEQQKKNEEELKKLEEWAKKWNWF-NH2): 2.8 nM, 5.8% and 64.6 °C.
As to `CC[C@H](C)[C@H](NC(=O)[C@H](CC(C)C)NC(=O)[C@H](CCC(=O)O)NC(=O)[C@H](CCC(=O)O)NC(=O)[C@@H](NC(=O)[C@H](CC(C)C)NC(=O)[C@H](CO)NC(=O)[C@@H](NC(=O)[C@H](Cc1ccc(O)cc1)NC(C)=O)[C@@H](C)O)[C@@H](C)CC)C(=O)N[C@@H](CCCCN)C(=O)N[C@@H](CCCCN)C(=O)N[C@@H](CO)C(=O)N[C@@H](CCC(=O)O)C(=O)N[C@@H](CCC(=O)O)C(=O)N[C@H](C(=O)N[C@@H](CCC(N)=O)C(=O)N[C@@H](CCCCN)C(=O)N[C@@H](CCCCN)C(=O)N[C@@H](CC(N)=O)C(=O)N[C@@H](CCC(=O)O)C(=O)N[C@@H](CCC(=O)O)C(=O)N[C@@H](CCC(=O)O)C(=O)N[C@@H](CC(C)C)C(=O)N[C@@H](CCCCN)C(=O)N[C@@H](CCCCN)C(=O)N[C@@H](CC(C)C)C(=O)N[C@@H](CCC(=O)O)C(=O)N[C@@H](CCC(=O)O)C(=O)N[C@@H](Cc1c[nH]c2ccccc12)C(=O)N[C@@H](C)C(=O)N[C@@H](CCCCN)C(=O)N[C@@H](CCCCN)C(=O)N[C@@H](Cc1c[nH]c2ccccc12)C(=O)N[C@@H](CC(N)=O)C(=O)N[C@@H](Cc1c[nH]c2ccccc12)C(=O)N[C@@H](Cc1ccccc1)C(N)=O)C(C)C` (Ac-YTSLIEELIKKSEEVQKKNEEELKKLEEWAKKWNWF-NH2), the half-maximal effective concentration (EC50) in test [1] was found to be 2.9 nM. Also, the Activity in test [2] came out at 6.1%. In addition, the Tm in test [3] is 70.5 °C.
